System: recombinant NL4-3 virus (Renilla luciferase in nef, Gag P373S)
Assay: HIV Cell Culture Assay (luciferase reporter virus in MT-2 cells)
Type: cell-based
Conditions: NL43
Experimental: MT-2 cells and 293T cells were obtained from the NIH AIDS Research and Reference Reagent Program. MT-2 cells were propagated in RPMI 1640 media supplemented with 10% heat inactivated fetal bovine serum, […]. The 293T cells were propagated in DMEM media supplemented with 10% heat inactivated fetal bovine serum (FBS), 100 units/mL penicillin G and 100 μg/mL streptomycin. The proviral DNA clone of NL4-3 was obtained from the NIH AIDS Research and Reference Reagent Program. A recombinant NL4-3 virus, in which a section of the nef gene from NL4-3 was replaced with the Renilla luciferase gene, was used as a reference virus. In addition, residue Gag P373 was converted to P373S. Briefly, the recombinant virus was prepared by transfection of the altered proviral clone of NL4-3. Transfections were performed in 293T cells using LipofectAMINE PLUS from Invitrogen (Carlsbad, Calif.), according to manufacturer's instruction. The virus was titered in MT-2 cells using luciferase enzyme activity as a marker. Luciferase was quantitated using the Dual Luciferase kit from Promega (Madison, Wis.), with modifications to the manufacturer's protocol. The diluted Passive Lysis solution was pre-mixed with the re-suspended Luciferase Assay Reagent and the re-suspended Stop & Glo Substrate (2:1:1 ratio). Fifty (50) μL of the mixture was added to each aspirated well on assay plates and luciferase activity was measured immediately on a Wallac TriLux (Perkin-Elmer). Antiviral activities of inhibitors toward the recombinant virus were quantified by measuring luciferase activity in cells infected for 4-5 days with NLRluc recombinants in the presence serial dilutions of the inhibitor.

Row | Structure (SMILES) | EC50 [nM]
1 | CC(C)C1=C2[C@H]3CC[C@@H]4[C@@]5(C)CC=C(C6=CC[C@](CF)(C(=O)O)CC6)C(C)(C)[C@@H]5CC[C@@]4(C)[C@]3(C)CC[C@@]2(CNCCCN2CCS(=O)(=O)CC2)C=C1c1ccccc1 [Example 16, (S)-4-((3aR,5aR,5bR,7aR,11aS,11bR,13aS)-3a-(((3-(1,1-dioxidothiomorpholino)propyl)amino)methyl)-1-isopropyl-5a,5b,8,8,11a-pentamethyl-2-phenyl-4,5,5a,5b,6,7,7a,8,11,11a,11b,12,13,13a-tetradecahydro-3aH-cyclopenta[a]chrysen-9-yl)-1-(fluoromethyl)cyclohex-3-enecarboxylic acid] | 2.64
2 | CC(C)C1=C2[C@H]3CC[C@@H]4[C@@]5(C)CC=C(C6=CC[C@](CF)(C(=O)O)CC6)C(C)(C)[C@@H]5CC[C@@]4(C)[C@]3(C)CC[C@@]2(NCCN2CCS(=O)(=O)CC2)C=C1c1ccccc1 [Example 17, (S)-4-((3aR,5aR,5bR,7aR,11aS,11bR,13aS)-3a-((2-(1,1-dioxidothiomorpholino)ethyl)amino)-1-isopropyl-5a,5b,8,8,11a-pentamethyl-2-phenyl-4,5,5a,5b,6,7,7a,8,11,11a,11b,12,13,13a-tetradecahydro-3aH-cyclopenta[a]chrysen-9-yl)-1-(fluoromethyl)cyclohex-3-enecarboxylic acid] | 109

From US9969767B2, “Oxolupene derivatives” (priority 2014, dated 2018)
